Read-outs that look alike come from different tables or passages of the source.
Assays:
[1] = snar bond
[2] = target: CFTR-mediated chloride transport (Homo sapiens, UniProt P13569); type: cell-based; conditions: enteroid cells incubated with test compound 18-24 hours, acute 10 μM forskolin and 300 nM Compound III; for Max. Activity: % of chloride transport with 3 μM Compound A, 3 μM Compound II and 300 nM acute Compound III triple combination control
How it was run: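 Human intestinal enteroid cells incubated with compound 18–24 h at 37° C., then membrane potential dye (FLIPR) read 15 min after chloride-free stimulation with 10 μM forskolin, 100 μM IBMX and 300 nM Compound III. AUC expressed as % of triple-combination control (3 μM Compound A, 3 μM Compound II, 300 nM Compound III).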

Sequence of CFTR-mediated chloride transport (P13569 whole entry, looked up): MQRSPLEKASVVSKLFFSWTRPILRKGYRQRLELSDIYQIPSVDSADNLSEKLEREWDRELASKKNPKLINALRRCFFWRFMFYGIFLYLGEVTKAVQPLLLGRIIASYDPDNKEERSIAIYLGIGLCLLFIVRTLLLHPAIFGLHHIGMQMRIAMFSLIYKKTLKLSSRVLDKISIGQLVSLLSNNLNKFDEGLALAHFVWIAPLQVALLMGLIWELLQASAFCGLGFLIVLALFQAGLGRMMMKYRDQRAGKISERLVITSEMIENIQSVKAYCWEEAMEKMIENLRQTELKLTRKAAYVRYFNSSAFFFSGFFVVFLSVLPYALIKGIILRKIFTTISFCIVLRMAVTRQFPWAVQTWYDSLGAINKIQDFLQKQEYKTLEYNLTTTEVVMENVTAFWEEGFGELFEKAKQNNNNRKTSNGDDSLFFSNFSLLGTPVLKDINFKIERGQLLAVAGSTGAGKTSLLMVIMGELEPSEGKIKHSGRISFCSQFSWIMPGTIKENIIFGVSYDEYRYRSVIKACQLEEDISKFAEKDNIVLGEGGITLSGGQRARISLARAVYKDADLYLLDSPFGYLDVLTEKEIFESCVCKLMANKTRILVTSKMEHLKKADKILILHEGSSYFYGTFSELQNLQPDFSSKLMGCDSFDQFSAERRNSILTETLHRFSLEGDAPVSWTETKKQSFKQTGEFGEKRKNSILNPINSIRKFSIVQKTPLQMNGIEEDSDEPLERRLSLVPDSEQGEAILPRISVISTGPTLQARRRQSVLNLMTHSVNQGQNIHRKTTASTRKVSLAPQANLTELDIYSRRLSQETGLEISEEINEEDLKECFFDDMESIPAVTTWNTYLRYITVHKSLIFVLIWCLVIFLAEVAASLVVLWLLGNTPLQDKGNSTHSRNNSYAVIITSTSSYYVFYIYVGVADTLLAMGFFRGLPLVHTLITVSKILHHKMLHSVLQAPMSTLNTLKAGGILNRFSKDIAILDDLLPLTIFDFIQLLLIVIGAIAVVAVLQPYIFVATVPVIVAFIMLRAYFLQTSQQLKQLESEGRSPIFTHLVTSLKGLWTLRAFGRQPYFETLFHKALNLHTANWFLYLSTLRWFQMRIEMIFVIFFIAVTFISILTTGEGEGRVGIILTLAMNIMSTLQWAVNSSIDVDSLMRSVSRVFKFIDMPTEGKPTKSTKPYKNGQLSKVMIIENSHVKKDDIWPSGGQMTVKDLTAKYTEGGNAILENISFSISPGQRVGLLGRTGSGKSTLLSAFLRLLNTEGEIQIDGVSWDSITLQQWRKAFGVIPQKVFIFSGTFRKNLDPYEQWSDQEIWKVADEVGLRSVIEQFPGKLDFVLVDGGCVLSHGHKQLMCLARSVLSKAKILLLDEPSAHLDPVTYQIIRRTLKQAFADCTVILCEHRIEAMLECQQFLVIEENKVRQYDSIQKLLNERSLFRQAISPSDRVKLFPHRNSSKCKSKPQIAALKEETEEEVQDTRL

| SMILES | EC50 [2] | Max. Activity [2] | further results |
| --- | --- | --- | --- |
| CC1(C)C[C@@H]2CCCNc3cccc(n3)S(=O)(=O)NC(=O)c3ccc(-n4ccc(OCC(O)CC5(C(F)(F)F)CC5)n4)nc3N1C2 (stereo partly drawn) [Compound 259, (14S)-8-(3-{2-hydroxy-3-[1-(trifluoromethyl)cyclopropyl]propoxy}-1H-pyrazol-1-yl)-12,12-dimethyl-2λ^6-thia-3,9,11,18,23-pentaazatetracyclo[17.3.1.111,14.05,10]tetracosa-1(22),5(10),6,8,19(23),20-hexaene-2,2,4-trione] | < 1000 nM | +++ (+++ is >60%) | ring closure, isolated yield ([1]; from CC(C)(C)OC(=O)N1C[C@@H](CCCNc2cccc(S(=O)(=O)NC(=O)c3ccc(-n4ccc(OCC(O)CC5(C(F)(F)F)CC5)n4)nc3Cl)n2)CC1(C)C, 15-membered ring, HCl/dioxane/DCM, then K2CO3/3A MS, DMSO, 28.6 mM, 155.0 °C, 2 steps): 42% |
| CC1(C)CC2CCCn3cc(cn3)S(=O)(=O)NC(=O)c3ccc(-n4ccc(OCCC5(C(F)(F)F)CC5)n4)nc3N1C2 (stereo not drawn) [Compound 110, 20,20-Dimethyl-4-(3-{2-[1-(trifluoromethyl)cyclopropyl]ethoxy}-1H-pyrazol-1-yl)-10λ^6-thia-1,3,9,13,14-pentaazatetracyclo[16.2.1.111,14.02,7]docosa-2,4,6,11(22),12-pentaene-8,10,10-trione] | < 1000 nM | ++ (++ is 30-60%) | ring closure, isolated yield ([1]; from CC(C)(C)OC(=O)N1CC(CCCn2cc(S(=O)(=O)NC(=O)c3ccc(-n4ccc(OCCC5(C(F)(F)F)CC5)n4)nc3Cl)cn2)CC1(C)C, 14-membered ring, HCl (Boc off), K2CO3/CsF/3A MS, DMSO, 44.8 mM, 155.0 °C, 2 steps): 36% |
| CN1CCCC2CN(c3nc(-n4ccc(OCCC5(C(F)(F)F)CC5)n4)ccc3C(=O)NS(=O)(=O)c3cccc1n3)C(C)(C)C2 (stereo not drawn) [Compound 133, 12,12,18-trimethyl-8-(3-{2-[1-(trifluoromethyl)cyclopropyl]ethoxy}-1H-pyrazol-1-yl)-2λ^6-thia-3,9,11,18,23-pentaazatetracyclo[17.3.1.111,14.05,10]tetracosa-1(23),5(10),6,8,19,21-hexaene-2,2,4-trione] | < 1000 nM | +++ (+++ is >60%) | ring closure, isolated yield ([1]; from CN(CCCC1CNC(C)(C)C1)c1cccc(S(=O)(=O)NC(=O)c2ccc(-n3ccc(OCCC4(C(F)(F)F)CC4)n3)nc2Cl)n1, 15-membered ring, K2CO3/CsF/3A MS, DMSO, 30.3 mM, 165.0 °C, 4.0 h): 42% |
| CC1(C)CC2CCCCCc3ccc(cn3)S(=O)(=O)NC(=O)c3ccc(-n4ccc(OCCC5(C(F)(F)F)CC5)n4)nc3N1C2 (stereo not drawn) [Compound 142, 12,12-Dimethyl-8-(3-{2-[1-(trifluoromethyl)cyclopropyl]ethoxy}-1H-pyrazol-1-yl)-2λ^6-thia-3,9,11,21-tetraazatetracyclo[18.2.2.111,14.05,10]pentacosa-1(23),5,7,9,20(24),21-hexaene-2,2,4-trione] | < 1000 nM | + (+ is <30%) | ring closure, isolated yield ([1]; from 2-chloro-N-[[6-[5-(5,5-dimethylpyrrolidin-3-yl)pentyl]-3-pyridyl]sulfonyl]-6-[3-[2-[1-(trifluoromethyl)cyclopropyl]ethoxy]pyrazol-1-yl]pyridine-3-carboxamide (dihydrochloride salt), 17-membered ring, K2CO3/CsF, DMSO, 63.0 mM, 165.0 °C): 36% |
| CC1(C)CC2CCCCc3cccc(c3)S(=O)(=O)NC(=O)c3ccc(-n4ccc(OCCC5(C(F)(F)F)CC5)n4)nc3N1C2 (stereo not drawn) [Compound 53, 12,12-dimethyl-8-(3-{2-[1-(trifluoromethyl)cyclopropyl]ethoxy}-1H-pyrazol-1-yl)-2λ^6-thia-3,9,11-triazatetracyclo[17.3.1.111,14.05,10]tetracosa-1(22),5,7,9,19(23),20-hexaene-2,2,4-trione] | < 1000 nM | +++ (+++ is >60%) | ring closure, isolated yield ([1]; from CC1(C)CC(CCCCc2cccc(S(=O)(=O)NC(=O)c3ccc(-n4ccc(OCCC5(C(F)(F)F)CC5)n4)nc3Cl)c2)CN1, 15-membered ring, K2CO3/CsF/3A MS, DMSO, 32.0 mM, 165.0 °C, 6.0 h): 51% |
| CN1CCCC2CCC(C)(C)N2c2nc(-n3ccc(OCCC4(C(F)(F)F)CC4)n3)ccc2C(=O)NS(=O)(=O)c2cccc1n2 (racemic) [Compound 9, 12,12,19-trimethyl-8-(3-{2-[1-(trifluoromethyl)cyclopropyl]ethoxy}-1H-pyrazol-1-yl)-2λ^6-thia-3,9,11,19,24-pentaazatetracyclo[18.3.1.05,10.011,15]tetracosa-1(23),5,7,9,20(24),21-hexaene-2,2,4-trione] | < 1000 nM | ++ (++ is 30-60%) | ring closure, isolated yield ([1]; from CN(CCCC1CCC(C)(C)N1)c1cccc(S(=O)(=O)NC(=O)c2ccc(-n3ccc(OCCC4(C(F)(F)F)CC4)n3)nc2Cl)n1, 14-membered ring, K2CO3/CsF/3A MS, DMSO, 72.3 mM, 150.0 °C, 25.0 h): 78% |
| CC1(C)CC2CCCn3ccc(n3)S(=O)(=O)NC(=O)c3ccc(-n4ccc(OCCC5C6(CC6)C56CC6)n4)nc3N1C2 (stereo not drawn) [Compound 176, 4-[3-(2-{dispiro[2.0.2.1]heptan-7-yl}ethoxy)-1H-pyrazol-1-yl]-20,20-dimethyl-10λ^6-thia-1,3,9,14,22-pentaazatetracyclo[16.2.1.111,14.02,7]docosa-2,4,6,11(22),12-pentaene-8,10,10-trione] | < 1000 nM | +++ (+++ is >60%) | ring closure, isolated yield ([1]; from CC1(C)CC(CCCn2ccc(S(=O)(=O)NC(=O)c3ccc(-n4ccc(OCCC5C6(CC6)C56CC6)n4)nc3Cl)n2)CN1, 14-membered ring, K2CO3/CsF/3A MS, DMSO, 53.1 mM, 155.0 °C): 40% |
| CC1(C)C[C@@H]2CCCNc3cccc(n3)S(=O)(=O)NC(=O)c3ccc(-n4ccc(OCCC5C6(CC6)C56CC6)n4)nc3N1C2 [Compound 195, (14S)-8-[3-(2-{Dispiro[2.0.2.1]heptan-7-yl}ethoxy)-1H-pyrazol-1-yl]-12,12-dimethyl-2λ^6-thia-3,9,11,18,23-pentaazatetracyclo[17.3.1.111,14.05,10]tetracosa-1(22),5,7,9,19(23),20-hexaene-2,2,4-trione] | < 1000 nM | +++ (+++ is >60%) | ring closure, isolated yield ([1]; from CC1(C)C[C@H](CCCNc2cccc(S(=O)(=O)NC(=O)c3ccc(-n4ccc(OCCC5C6(CC6)C56CC6)n4)nc3Cl)n2)CN1, 15-membered ring, K2CO3, NMP, 55.8 mM, 150.0 °C, 22.0 h): 68% |
| [2H]C([2H])([2H])C1(C([2H])([2H])[2H])C[C@@H]2CCCNc3cccc(n3)S(=O)(=O)NC(=O)c3ccc(-n4ccc(OCCCC5(C(F)(F)F)CC5)n4)nc3N1C2 [Compound 292, (14S)-12,12-di(trideuterio)methyl-8-(3-{3-[1-(trifluoromethyl)cyclopropyl]propoxy}-1H-pyrazol-1-yl)-2λ^6-thia-3,9,11,18,23-pentaazatetracyclo[17.3.1.111,14.05,10]tetracosa-1(22),5,7,9,19(23),20-hexaene-2,2,4-trione] | < 1000 nM | +++ (+++ is >60%) | ring closure, isolated yield ([1]; from [2H]C([2H])([2H])C1(C([2H])([2H])[2H])C[C@H](CCCNc2cccc(S(=O)(=O)NC(=O)c3ccc(-n4ccc(OCCCC5(C(F)(F)F)CC5)n4)nc3Cl)n2)CN1, 15-membered ring, K2CO3, NMP, 41.5 mM, 135.0 °C, 22.0 h): 27% |
| CC1(C)CCC2CCCNc3cccc(n3)S(=O)(=O)NC(=O)c3ccc(-n4ccc(OCCC5(C(F)(F)F)CC5)n4)nc3N21 (stereo not drawn) [Compound 16, 12,12-dimethyl-8-(3-{2-[1-(trifluoromethyl)cyclopropyl]ethoxy}-1H-pyrazol-1-yl)-2λ^6-thia-3,9,11,19,24-pentaazatetracyclo[18.3.1.05,10.011,15]tetracosa-1(23),5,7,9,20(24),21-hexaene-2,2,4-trione] | < 1000 nM | ++ (++ is 30-60%) | ring closure, isolated yield ([1]; from CC1(C)CCC(CCCNc2cccc(S(=O)(=O)NC(=O)c3ccc(-n4ccc(OCCC5(C(F)(F)F)CC5)n4)nc3Cl)n2)N1, 14-membered ring, K2CO3/CsF, DMSO, 84.1 mM, 150.0 °C): 58% |
| CN1CCCC2CN(c3nc(-n4ccc(OCCC5(C(F)(F)F)CC5)n4)ccc3C(=O)NS(=O)(=O)c3ccc1nc3)C(C)(C)C2 (stereo not drawn) [Compound 140, 12,12,18-Trimethyl-8-(3-{2-[1-(trifluoromethyl)cyclopropyl]ethoxy}-1H-pyrazol-1-yl)-2λ^6-thia-3,9,11,18,20-pentaazatetracyclo[17.2.2.111,14.05,10]tetracosa-1(22),5,7,9,19(23),20-hexaene-2,2,4-trione] | < 1000 nM | ++ (++ is 30-60%) | ring closure, isolated yield ([1]; from CN(CCCC1CNC(C)(C)C1)c1ccc(S(=O)(=O)NC(=O)c2ccc(-n3ccc(OCCC4(C(F)(F)F)CC4)n3)nc2Cl)cn1, 16-membered ring, K2CO3/CsF, DMSO, 10.2 mM, 200.0 °C, 1.5 h): 12% |
| CC1(C)CC2CCCOc3ccc(cc3)S(=O)(=O)NC(=O)c3ccc(-n4ccc(OCCC5(C(F)(F)F)CC5)n4)nc3N1C2 (racemic) [Compound 88, 12,12-Dimethyl-8-(3-{2-[1-(trifluoromethyl)cyclopropyl]ethoxy}-1H-pyrazol-1-yl)-18-oxa-2λ^6-thia-3,9,11-triazatetracyclo[17.2.2.111,14.05,10]tetracosa-1(21),5,7,9,19,22-hexaene-2,2,4-trione] | < 1000 nM | ++ (++ is 30-60%) | ring closure, isolated yield ([1]; from CC1(C)CC(CCCOc2ccc(S(=O)(=O)NC(=O)c3ccc(-n4ccc(OCCC5(C(F)(F)F)CC5)n4)nc3Cl)cc2)CN1, 16-membered ring, K2CO3/CsF/3A MS, DMSO, 37.3 mM, 35.0 h): 4% |

Reference: US11866450B2, “Modulators of Cystic Fibrosis Transmembrane Conductance regulator, pharmaceutical compositions, methods of treatment, and process for making the modulators” (priority 2018, dated 2024)
